Where two headings read alike, the source gives them in different places. Where a SMILES comes first, the peptide text is derived from it. Bridges are numbered along the chain shown (N, C = ends).
How the values were obtained:
[1] = tested on: Escherichia coli (ATCC 25922); parameters: method as in PMID 28669767; conditions: previously reported; cited from earlier work
[2] = tested on: Pseudomonas aeruginosa (ATCC 27853); parameters: method as in PMID 28669767; conditions: previously reported; cited from earlier work
[3] = tested on: Staphylococcus aureus (ATCC 29213); parameters: method as in PMID 28669767; conditions: previously reported; cited from earlier work
[4] = tested on: Candida albicans (ATCC 90028); parameters: method as in PMID 28669767; conditions: previously reported; cited from earlier work
[5] = tested on: Human Lymphoma Cell Line U-937 GTB; parameters: method as in PMID 21491023; conditions: previously reported; read-out: cytotoxicity, IC50, lymphoma U937; cited from earlier work
[6] = parameters: method as in PMID 28669767; conditions: previous liposome leakage studies; cited from earlier work
[7] = tested on: Escherichia coli (ATCC 25922); experiment: Microdilution MIC assay, E. coli; type: cell-based; conditions: for antimicrobial activity, MIC, Escherichia coli: lowest concentration inhibiting 100% growth, Tris buffer, triplicate
Text: (§1) Cyclotides isolated from G. repens were subjected to a microdilution assay on 96-well plates to determine minimum inhibitory concentration (MIC values), according to a method devised to minimize the activity-inhibiting presence of rich growth media.[43] For these experiments, bacterial strains of E. coli, P. aeruginosa, and S. aureus and the fungal strain of C. albicans were used. The MIC was taken as the lowest concentration of a cyclotide where the visible growth of microbes was inhibited, i.e., 100% of cell death.
(§2) The dried cyclotides were subjected to MIC determination[43] against Staphylococcus aureus (ATCC 29213), Escherichia coli (ATCC 25922), Pseudomonas aeruginosa (ATCC 27853), and Candida albicans (ATCC 90028). The cyclotides (stock concentration of 65 μM) were dissolved in Tris buffer for the assay, and a concentration gradient of the cyclotides was screened against a microbial suspension mixed in a 1:1 ratio in each well (50 μL:50 μL). Microorganisms were grown in 3% tryptic soy broth (TSB) at 37 °C overnight, after centrifuging at 2000 rpm for 6–7 min, and bacterial pellets were washed twice and dissolved with Tris buffer. The absorbance was measured at 600 nm, and the solution was diluted to a concentration of 1 × 10^6 bacteria/mL. Dilution series were prepared using a serial dilution method with cyclotides and Tris buffer. In each plate, 50 μL of microbial suspension (approximately 50 000 cells/well) was added and incubated for 5 h. After incubation, 5 μL of 20% TSB was added to each well. Each plate was incubated based on the growth cycle of the microbe for 6, 9, 10, and 12 h at 37 °C. The minimum concentration that inhibited 100% growth was recorded as the MIC value. Triplicate assays were carried out for each sample.

[8] = tested on: Pseudomonas aeruginosa (ATCC 27853); experiment: Microdilution MIC assay, P. aeruginosa; type: cell-based; conditions: lowest concentration inhibiting 100% growth; Tris buffer, triplicate
Text: as §1, §2

[9] = tested on: Staphylococcus aureus (ATCC 29213); experiment: Microdilution MIC assay, S. aureus; type: cell-based; conditions: lowest concentration inhibiting 100% growth; Tris buffer, triplicate
Text: as §1, §2

[10] = tested on: Candida albicans (ATCC 90028); experiment: Microdilution MIC assay, C. albicans; type: cell-based; conditions: lowest concentration inhibiting 100% growth; Tris buffer, triplicate
Text: as §1, §2

[11] = Liposome leakage (carboxyfluorescein release) membrane permeabilization assay; type: biochemical, E. coli; conditions: carboxyfluorescein release at 45 min, Tris buffer pH 7.4, current study
Procedure: Each marker represents the mean leakage in Tris buffer, pH 7.4, with standard deviations from three experiments done at individual peptide concentrations, i.e., with no cumulative additions.
Liposomes were manufactured and their permeabilization was assayed as described previously.[48] Briefly, by dissolving an E. coli polar lipid extract in chloroform and evaporating the solvent under agitation, with a nitrogen gas flow, and then storing in vacuum, dry films were formed on the walls of a glass flask. Lipid films were resuspended in an aqueous solution of 100 mM 5(6)-carboxyfluorescein in 10 mM Tris (set to pH 7.4 at 37 °C). Suspensions were subjected to repeated extrusion through a 100 nm polycarbonate membrane in order to reduce multilamellar structures and polydispersity. Untrapped carboxyfluorescein was removed by gel filtration. Membrane permeability was measured by monitoring carboxyfluorescein efflux from the liposomes to the external low-concentration environment, resulting in loss of self-quenching and an increased fluorescence signal. […] The EC50 values are calculated from a sigmoidal dose–response curve with a variable slope to the leakage percentage as a function of the peptide concentration (log 10).

[12] = tested on: Human Lymphoma Cell Line U-937 GTB; conditions: read-out: cytotoxicity, IC50, lymphoma U937; FMCA, 72 h incubation
Procedure: The cytotoxicity of the cyclotides was determined using the fluorometric microculture cytotoxicity assay, employing the U-937 a human lymphoma cell line. This assay is based on hydrolysis of the probe, fluorescein diacetate (FDA), by esterase in live cells containing an intact plasma membrane. The cyclotides were tested at a series of concentrations obtained by 2-fold dilutions.
Cytotoxicity activities of the pure cyclotides were evaluated using a fluorometric microculture cytotoxicity assay (FMCA),[57] which is based on the monitoring of fluorescence arising from fluorescein that is produced as a result of fluorescein diacetate (FDA) hydrolysis by cells with intact cell membranes. Human lymphoma cells (U937) suspended in cell-growth medium were dispensed into the microtiter plate containing pure cyclotides. Each well was seeded with 200 μL of cell suspension, containing approximately 20 000 cells, to give a total volume of 200 μL/well. […] After 40 min of incubation at 37 °C the fluorescence was measured at 485 nm excitation and 538 nm emission. The fluorescence in each well is proportional to the number of living cells, and cytotoxicity activity of a fraction is inversely proportional to fluorescence intensity. […] The IC50 values were calculated from a sigmoidal dose–response curve with a variable slope to the percentage viability as a function of the peptide concentration (log 10).

[13] = tested on: standard microbial strains (E. coli, P. aeruginosa, S. aureus, C. albicans); experiment: Microdilution MIC assay, whole panel of microorganisms; type: cell-based; conditions: highest tested concentration 32.5 μM
Text: as §1
as §2, with “In each plate, 50 μL of microbial suspension (approximately 50 000 cells/well) was added and incubated for 5 h. After incubation, 5 μL of 20% TSB was added to each well. Each plate was incubated based on the growth cycle of the microbe for 6, 9, 10, and 12 h at 37 °C. The minimum concentration that inhibited 100% growth was recorded as the MIC value. Triplicate assays were carried out for each sample.” left out

[14] = previously; cited from earlier work

Q: Which results are given for “cycloviolacin O2 [cyO2, reference compound]”?
A: antimicrobial activity, MIC, Escherichia coli [1]: >10 µM; antimicrobial activity, MIC, Pseudomonas aeruginosa [2]: 10 µM; antimicrobial activity, MIC, Staphylococcus aureus [3]: >10 µM; antimicrobial activity, MIC, Candida albicans [4]: >10 µM; IC50 [5]: 0.26 to 1.8 µM; EC50 [6]: 0.076 µM

Q: What does the source list for `CC[C@H](C)[C@@H]1NC(=O)[C@H](C)NC(=O)[C@H](CO)NC(=O)[C@H](CO)NC(=O)[C@H]([C@@H](C)CC)NC(=O)[C@@H]2CSSC[C@@H]3NC(=O)[C@H](C(C)C)NC(=O)[C@H](CCCCN)NC(=O)[C@H](CC(N)=O)NC(=O)[C@H](CCCCN)NC(=O)[C@@H]4CSSC[C@H](NC(=O)[C@H](CO)NC(=O)[C@H](CCC(=O)O)NC(=O)CNC(=O)[C@H](CSSC[C@H](NC(=O)CNC1=O)C(=O)N[C@@H](CO)C(=O)N4)NC(=O)[C@@H]1CCCN1C(=O)[C@H]([C@@H](C)CC)NC(=O)CNC(=O)[C@H](CC(N)=O)NC(=O)[C@H](CCCCN)NC(=O)[C@H](Cc1ccc(O)cc1)NC3=O)C(=O)N[C@@H](C(C)C)C(=O)N[C@@H](Cc1c[nH]c3ccccc13)C(=O)N[C@@H]([C@@H](C)CC)C(=O)N1CCC[C@H]1C(=O)N2` [gere 1] (cyclo(AIGCSCKNKVCYKNGIPCGESCVWIPCISS); disulfide 4-18, 6-22, 11-27)?
A: fold more active than cyO2 against E. coli ([7]; gere 1 versus cyO2 MIC): 5 fold; antimicrobial activity, MIC, Escherichia coli [7]: 4.0 µM; antimicrobial activity, MIC, Pseudomonas aeruginosa [8]: 7.9 µM; antimicrobial activity, MIC, Staphylococcus aureus [9]: >10 µM; antimicrobial activity, MIC, Candida albicans [10]: >10 µM; EC50 [11]: 0.07 µM; IC50 [12]: 2 µM

Q: For `CC[C@H](C)[C@@H]1NC(=O)[C@@H]2CCCN2C(=O)[C@H](Cc2c[nH]c3ccccc23)NC(=O)[C@H](CO)NC(=O)[C@@H]2CSSC[C@@H]3NC(=O)[C@H]([C@@H](C)O)NC(=O)[C@H](CCC(=O)O)NC(=O)CNC(=O)[C@@H]4CSSC[C@H](NC(=O)CNC(=O)[C@H](CCC(N)=O)NC(=O)[C@H]([C@@H](C)O)NC(=O)[C@H](Cc5ccc(O)cc5)NC(=O)[C@H](CSSC[C@H](NC1=O)C(=O)N[C@@H](CCCCN)C(=O)N[C@@H](CCCNC(=N)N)C(=O)N[C@@H](CC(N)=O)C(=O)NCC(=O)N[C@@H](CC(C)C)C(=O)N1CCC[C@H]1C(=O)N[C@@H](C(C)C)C(=O)N4)NC(=O)[C@H]([C@@H](C)O)NC(=O)CNC(=O)[C@H](CC(C)C)NC(=O)[C@H]([C@@H](C)O)NC3=O)C(=O)N[C@@H]([C@@H](C)O)C(=O)N2` [kB7, kalata B7] (cyclo(CGETCTLGTCYTQGCTCSWPICKRNGLPV); disulfide 1-15, 5-17, 10-22), which EC50 [11] is on record?
A: Its EC50 is 0.094 µM.

Q: What about the “minimum inhibitory concentration against panel of microorganisms” value [13] of the same compound?
A: The value was ≥ 32.5 µM.

Q: What about the IC50 [12] of the same compound?
A: Its IC50 is 10.2 µM.

Q: What about the “antimicrobial activity, MIC, Escherichia coli” value [1] of the same compound?
A: Its value is >10 µM.

Q: What about the “antimicrobial activity, MIC, Pseudomonas aeruginosa” value [2] of the same compound?
A: Its value is 1.25 µM.

Q: What about the “antimicrobial activity, MIC, Staphylococcus aureus” value [3] of the same compound?
A: The value was >10 µM.

Q: And the “antimicrobial activity, MIC, Candida albicans” value [4]?
A: Its value is >10 µM.

Q: And the IC50 [5]?
A: The IC50 was > 10 µM.

Q: What about the “concentration at which active in radial diffusion assays” value [14] of the same compound?
A: The value was 2 mM.

Q: Which results are given for `CC[C@H](C)[C@@H]1NC(=O)CNC(=O)[C@H](CC(N)=O)NC(=O)[C@H]([C@@H](C)CC)NC(=O)[C@H](Cc2ccc(O)cc2)NC(=O)[C@@H]2CSSC[C@@H]3NC(=O)CNC(=O)[C@H](Cc4ccccc4)NC(=O)[C@H](Cc4ccc(O)cc4)NC(=O)[C@H](C)NC(=O)[C@@H]4CSSC[C@H](NC(=O)[C@H](CO)NC(=O)[C@H](CSSC[C@H](NC(=O)[C@H](C)NC1=O)C(=O)NCC(=O)N[C@@H](CCC(=O)O)C(=O)N[C@@H](CO)C(=O)N4)NC(=O)CNC(=O)[C@@H]1CCCN1C(=O)[C@H]([C@@H](C)CC)NC(=O)[C@H](Cc1c[nH]c4ccccc14)NC3=O)C(=O)N[C@@H](CCCCN)C(=O)N[C@@H](CC(=O)O)C(=O)N[C@@H](CCCCN)C(=O)N[C@@H](C(C)C)C(=O)N2` [gere 2]?
A: antimicrobial activity, MIC, Escherichia coli [7]: >10 µM; antimicrobial activity, MIC, Pseudomonas aeruginosa [8]: >10 µM; antimicrobial activity, MIC, Staphylococcus aureus [9]: >10 µM; antimicrobial activity, MIC, Candida albicans [10]: >10 µM

Q: Which results are given for `CC[C@H](C)[C@@H]1NC(=O)[C@H](Cc2ccccc2)NC(=O)[C@H](C(C)C)NC(=O)[C@@H]2CSSC[C@@H]3NC(=O)[C@H](CO)NC(=O)[C@@H]4CSSC[C@H](NC(=O)[C@@H]5CCCN5C(=O)[C@H](C(C)C)NC(=O)CNC(=O)[C@H](CC(N)=O)NC(=O)[C@H](CC(N)=O)NC(=O)[C@H](Cc5ccc(O)cc5)NC(=O)[C@H](CSSC[C@H](NC(=O)[C@@H]5CCCN5C1=O)C(=O)N[C@@H](Cc1ccccc1)C(=O)N[C@@H]([C@@H](C)O)C(=O)N[C@@H]([C@@H](C)O)C(=O)N[C@@H](C(C)C)C(=O)N[C@@H](C(C)C)C(=O)NCC(=O)N4)NC(=O)[C@H](C(C)C)NC(=O)[C@H](CCCCN)NC(=O)[C@H](CC(=O)O)NC(=O)[C@H](CCCCN)NC3=O)C(=O)NCC(=O)N[C@@H](CCC(=O)O)C(=O)N[C@@H](CO)C(=O)N2` [gere 4]?
A: antimicrobial activity, MIC, Escherichia coli [7]: >10 µM; antimicrobial activity, MIC, Pseudomonas aeruginosa [8]: >10 µM; antimicrobial activity, MIC, Staphylococcus aureus [9]: >10 µM; antimicrobial activity, MIC, Candida albicans [10]: >10 µM

Q: For `CC[C@H](C)[C@@H]1NC(=O)[C@@H]2CSSC[C@@H]3NC(=O)[C@H](C(C)C)NC(=O)[C@H](CCCCN)NC(=O)[C@H](CC(=O)O)NC(=O)[C@H](CCCCN)NC(=O)[C@@H]4CSSC[C@H](NC(=O)[C@H](CO)NC(=O)[C@H](CCC(=O)O)NC(=O)CNC(=O)[C@H](CSSC[C@H](NC(=O)CNC(=O)[C@H]([C@@H](C)CC)NC(=O)[C@H](C(C)C)NC(=O)[C@H]([C@@H](C)O)NC(=O)[C@H]([C@@H](C)O)NC1=O)C(=O)N[C@@H](CO)C(=O)N4)NC(=O)[C@@H]1CCCN1C(=O)[C@H](C(C)C)NC(=O)CNC(=O)[C@H](CC(N)=O)NC(=O)[C@H]([C@@H](C)O)NC(=O)[C@H](Cc1ccc(O)cc1)NC3=O)C(=O)N[C@@H](C(C)C)C(=O)N[C@@H](Cc1ccccc1)C(=O)N[C@@H]([C@@H](C)CC)C(=O)N1CCC[C@H]1C(=O)N2` [gere 3], which “antimicrobial activity, MIC, Escherichia coli” value [7] is on record?
A: The value was >10 µM.

Q: And the “antimicrobial activity, MIC, Pseudomonas aeruginosa” value [8]?
A: Its value is >10 µM.

Q: What about the “antimicrobial activity, MIC, Staphylococcus aureus” value [9] of the same compound?
A: The value was >10 µM.

Q: And the “antimicrobial activity, MIC, Candida albicans” value [10]?
A: Its value is >10 µM.

— article PMC9887600, “Screening for Cyclotides in Sri Lankan Medicinal Plants: Discovery, Characterization, and Bioactivity Screening of Cyclotides from Geophila repens” (Journal of Natural Products, 2022)
